Experimental data as given in publication PMC7555825, “New Insights of the Zn(II)-Induced P2 × 4R Positive Allosteric Modulation: Role of Head Receptor Domain SS2/SS3, E160 and D170” (International Journal of Molecular Sciences, 2020).
Numbering of substitutions follows the chain as printed. Values belong to the molecule of their own block, whether it stands above or below them.

How the values were obtained:
rP2 × 2R [1] = target: T1, rP2 × 2R (Rattus norvegicus, UniProt P49653); settings: NEM treatment + Zn(II) group; control before treatment (first ATP curve)
T1 sequence (P49653 1-472): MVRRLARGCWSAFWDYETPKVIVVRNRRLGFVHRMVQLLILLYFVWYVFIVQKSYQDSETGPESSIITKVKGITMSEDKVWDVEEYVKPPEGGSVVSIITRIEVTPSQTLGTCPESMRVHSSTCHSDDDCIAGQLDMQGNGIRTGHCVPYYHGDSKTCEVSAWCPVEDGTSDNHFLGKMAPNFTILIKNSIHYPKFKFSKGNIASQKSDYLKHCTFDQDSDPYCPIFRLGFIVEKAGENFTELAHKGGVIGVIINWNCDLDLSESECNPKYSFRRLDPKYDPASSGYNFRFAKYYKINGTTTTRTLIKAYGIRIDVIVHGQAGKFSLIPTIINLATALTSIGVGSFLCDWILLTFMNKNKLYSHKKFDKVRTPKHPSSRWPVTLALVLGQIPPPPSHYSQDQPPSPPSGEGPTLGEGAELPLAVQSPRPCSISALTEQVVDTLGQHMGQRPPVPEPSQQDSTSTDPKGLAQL

D170A mutant = system: D170A mutant; parameters: method as in Kasuya et al., (2016) 38; settings: ref Kasuya et al., (2016) 38; cited from earlier work
rP2 × 4R E118Q mutant = target: T2, rP2 × 4R E118Q mutant (Rattus norvegicus, UniProt P51577, E118Q); assay: ATP concentration–response curves, voltage clamp, E118Q mutant; format: cell-based; settings: 10 µM Zn(II)
T2 construct: host or cells: Xenopus laevis oocytes
T2 sequence (P51577 1-388 E118Q): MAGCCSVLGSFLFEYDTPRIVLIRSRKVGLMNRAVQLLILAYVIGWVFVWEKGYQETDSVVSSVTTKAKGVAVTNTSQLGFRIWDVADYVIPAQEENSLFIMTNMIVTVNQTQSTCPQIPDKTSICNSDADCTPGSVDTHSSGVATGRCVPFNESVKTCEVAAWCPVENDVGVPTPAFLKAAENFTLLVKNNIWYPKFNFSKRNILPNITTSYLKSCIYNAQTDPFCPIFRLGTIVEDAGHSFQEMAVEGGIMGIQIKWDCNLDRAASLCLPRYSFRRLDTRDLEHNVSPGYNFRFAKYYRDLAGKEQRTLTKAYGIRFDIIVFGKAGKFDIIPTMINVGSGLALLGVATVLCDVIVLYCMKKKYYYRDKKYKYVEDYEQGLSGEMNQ

rP2 × 2R [2] = target: T1, rP2 × 2R; parameters: expressed in transfected cells; host or cells: Xenopus laevis oocytes (intranuclear plasmid injection); method as in PMID 10737610, PMID 10188989, PMID 10322050, PMID 8622997; settings: P2 × 2R; cited from earlier work
rP2 × 2R [3] = target: T1, rP2 × 2R; assay: Short protocol: Zn(II) potentiation of single 10 µM ATP-evoked currents before/after thiol reagent treatment, rP2 × 2R oocytes; format: cell-based; parameters: expressed in transfected cells; host or cells: Xenopus laevis oocytes (intranuclear plasmid injection); settings: for times potentiation of ATP-evoked currents by Zn(II): 30 µM Zn(II)
Protocol: (§1) A simpler and shorter assay to test the Zn(II) potentiation was developed to better assess the loss of Zn(II) modulation elicited by the joint co-treatment of NEM plus Zn(II). […] Ten minutes after alkylator washout, cells were treated with Zn(II) plus NEM or iodoacetamide (IA) for 5 min followed by 20 min of alkylator washout. Next, the P2 × R was tested again to examine the magnitude of the Zn(II) potentiation.
(§2) After 10 min of washout we applied 300 µM NEM, 300 µM IA, 300 µM IAc, or 300 µM DTNB for 5 min in absence or presence of Zn(II) (10 µM for rP2 × 4R and 30 µM for rP2 × 2R).

rP2 × 4R = target: T3, rP2 × 4R (Rattus norvegicus, UniProt P51577); assay: Short protocol: Zn(II) potentiation of single 10 µM ATP-evoked currents before/after thiol reagent treatment, rP2 × 4R oocytes; format: cell-based; settings: for fold increase of ATP-evoked currents by Zn(II): 10 µM ATP
T3 construct: host or cells: Xenopus laevis oocytes (intranuclear plasmid injection, pcDNA3)
T3 sequence (P51577 1-388): T2 sequence (P51577 1-388 E118Q) with Q118E
Protocol: as §1, §2
After 10 min of washout we applied 300 µM NEM + 10 µM DTT.

Imax (rP2 × 2R [1]): 26.7 ± 3.5 µA
Structure (SMILES): Nc1ncnc2c1ncn2[C@@H]1O[C@H](COP(=O)(O)OP(=O)(O)OP(=O)(O)O)[C@@H](O)[C@H]1O [ATP, adenosine triphosphate]

Structure (SMILES): [Cl-].[Cl-].[Zn+2] [Zn(II), zinc chloride (ZnCl2)]
fold potentiation of the 3 µM ATP-gated currents (D170A mutant): 2 fold
fold leftward shift of ATP concentration–response curve by Zn(II) (rP2 × 4R E118Q mutant): 13.6 fold
fold leftward displacement of the ATP concentration–response curve by Zn(II) (rP2 × 2R [2]): 5 fold
times potentiation of ATP-evoked currents by Zn(II) (rP2 × 2R [3]; before IA + Zn(II) treatment, Figure 2F): 8.3 ± 4.0 times
times potentiation of ATP-evoked currents by Zn(II) (rP2 × 2R [3]; before NEM + Zn(II) treatment, Figure 2E): 11.4 ± 2.0 times
Zn(II) concentration potentiating the ATP-evoked currents (rP2 × 2R [3]; co-application with ATP, Figure S1 right): 30 to 300 µM
fold increase of ATP-evoked currents by Zn(II) (rP2 × 4R; 10 µM Zn(II), after 300 µM NEM plus 10 µM Zn(II) incubation): 1.3 ± 0.2 fold
fold increase of ATP-evoked currents by Zn(II) (rP2 × 4R; 10 µM Zn(II), after 300 µM NEM treatment (no Zn(II)) and washout): 1.6 ± 0.2 fold
fold increase of ATP-evoked currents by Zn(II) (rP2 × 4R; 10 µM Zn(II), before NEM plus Zn(II) incubation): 2.4 ± 0.3 fold
fold increase of ATP-evoked currents by Zn(II) (rP2 × 4R; 10 µM Zn(II), before NEM treatment): 1.8 ± 0.1 fold
fold potentiation of ATP-evoked currents by Zn(II) (rP2 × 4R; 10 µM Zn(II), before 10 µM DTT + 300 µM NEM treatment): 2.0 ± 0.2 fold
ATP plus Zn(II) current after DTT plus NEM treatment, fold for the first ATP application (rP2 × 4R; 10 µM Zn(II), no potentiation by Zn(II) observed): 2.4 ± 0.7 fold
fold potentiation of 10 µM ATP-evoked currents by Zn(II) (rP2 × 4R; 10 µM Zn(II), prior to any treatments): ~2 fold
fold Zn(II)-induced potentiation of ATP-evoked currents (rP2 × 4R; after 300 µM DTNB plus 10 µM Zn(II) treatment): 2.1 ± 0.4 fold
fold Zn(II)-induced potentiation of ATP-evoked currents (rP2 × 4R; after 300 µM IAc plus 10 µM Zn(II) treatment): 2.4 ± 0.7 fold
reversibility of the metal effect (rP2 × 4R; after 10 min washout initial 10 µM ATP-gated current fully recovered): reversible
fold Zn(II)-induced potentiation of ATP-evoked currents (rP2 × 4R; before DTNB plus Zn(II) treatment): 1.9 ± 0.3 fold
fold Zn(II)-induced potentiation of ATP-evoked currents (rP2 × 4R; before IAc plus Zn(II) treatment): 2.2 ± 0.2 fold
